What all share (format): in vivo
For experiment [1], the system named is Botrytis elliptica. Kind of experiment: B190 formulations on Botrytis elliptica infected lilies in field. Particulars: B190 1 × 10^5 cfu/ml, 3 applications (10 days/interval), fourteen days after the last application, scale 0 to 4. The procedure: Bacillus amyloliquefaciens B190 was cultured in a flask containing 1% rice chaff and 99% de-ion water. Then the flask was positioned on a rotary shaker located in an incubator. B190 was incubated at an ambient temperature of 25±5° C. for 3 days. Thereafter, the cultured B190 was collected by means of centrifugation (3000 rpm/10 minutes; Tomy CM-60 RN, Seiko, Japan). The pellet mixed with 1% (w/v) kaolin was used as a wettable powder (WP). The pellet mixed with 0.025% (v/v) heavy mineral oil and 0.1% Tween 80 was served as an emulsion (E).
Different chemicals or adjuvants were added to the wettable powder, emulsion or B190-containing filtrate as described above for investigating their inhibitory ability on lilies in the field. These chemicals include 0.025% Ca(OH)2, 0.05% Na2CO3, 0.025% NH4NO3 and 0.025% K2HPO4. The adjuvants comprise 0.1% Tween 80 and 0.05% mineral oil.
Unformulated B. amyloliquefaciens B190 and 100 p.p.m. flusilazole were used as controls. In addition, uninoculated and inoculated lily plants with B. elliptica were also included as controls. Applications of these treatments were carried out when flowering tissues reached 100 to 120 mm in diameter. Treatments were applied three times with intervals of 10 days. […] After inoculating B. elliptica for ten days, disease severity was scored as described above.

Experiment [2] relates to Botrytis elliptica. The experiment can be described thus: Field trials, control of lily gray mold; disease severity. To be noted: antagonist 1 × 10^5 cfu/ml or 100 ppm flusilazole, three applications, recorded 14 days after the last application, scale 0 to 4. As for the experimental part: Lily fields in Taipei and I-Lan counties were selected for this experiment. Suspensions of the B190 and Botrytis elliptica were adjusted to about 1×10^5 cfu/ml and 1×10^3 conidia/ml, respectively, before application. 100 ppm of flusilazole (37% Emulsion, Du Pont, USA) was used for comparison. After spraying B190 or flusilazole by sprayer (MS sprayer, Taiwan), 5 ml of the spore suspension of Botrytis elliptica was sprayed onto each 100-day-old lily plant. A total of three sprays at 10-day intervals were applied. Each treatment consisted of 100 plants with 4 replicates. Every replicate was planted on a plot, which was 30 m long and 2 m wide. All the treatments were arranged based on randomized complete block design. Two weeks after the last spray, disease severity was assessed and analyzed as above-mentioned.

For experiment [3], the system named is Botrytis elliptica. The experiment can be described thus: B190 formulations on Botrytis elliptica infected lilies in greenhouse. Particulars: B190 […] cfu/ml, 3 applications (10 days/interval), flusilazole 100 p.p.m., recorded ten days after the last application, scale 0 to 4. As for the experimental part:
Bacillus amyloliquefaciens B190 was cultured in a flask containing 1% rice chaff and 99% de-ion water. The flask was then positioned on a rotary shaker located in an incubator. B190 was incubated at 25±5° C. for 3 days. Thereafter, the B190-containing solution was filtered for application in the following experiments.
Different chemicals or adjuvants were added to the B190-containing filtrate for investigating their inhibitive capability on Botrytis elliptica infected lilies in greenhouse. The chemicals include 0.025% Ca(OH)2, 0.05% Na2CO3, 0.025% NH4NO3 and 0.025% K2HPO4. The adjuvants comprise 0.1% Tween 80 and 0.05% mineral oil.
Unformulated B. amyloliquefaciens B190 and 100 p.p.m. flusilazole were used as controls. In addition, uninoculated and inoculated lily plants with B. elliptica were also included as controls. Applications of these treatments were carried out when flowering tissues reached 30 to 50 mm in diameter. Treatments were applied three times with intervals of 10 days. Thereafter, 5 ml of B. elliptica spore suspension (1×10^3 conidia/ml) was inoculated on lily plants except the uninoculated control. Each different treatment had four replicates, and 5 lily plants were applied in every replicate. All treatments were arranged in a randomized complete block design. After inoculating B. elliptica for ten days, disease severity was scored as described above.

For the compound `C[Si](Cn1cncn1)(c1ccc(F)cc1)c1ccc(F)cc1` [Flusilazole, flusilazole], the Disease severity with Botrytis elliptica [1] (I: two trials in I-Lan county) came to 0.23 cd; with Botrytis elliptica [1] (II: two trials in NTU experimental farm), 0.39 bc; in the experiment with Botrytis elliptica [2] (I-Lan) it was 0.80 b; with Botrytis elliptica [2] (Taipei) it was 0.31 bc; in the experiment on Botrytis elliptica [3] it was 0.32 ef.

These data come from patent US6960342B2, “Method for inhibiting pathogenic fungi in plants using Bacillus amyloliquefaciens” (National Taiwan University, priority 2002, dated 2005).
